Reference: patent US20200022998A1, “MEDICAL USE OF NOTCH4 OR INHIBITORS THEREOF” (BEIJING INSTITUTE OF GENOMICS, CHINESE ACADEMY OF SCIENCES, priority 2016, published 2020)

What was measured:
Assay type in all cases: cell-based, human
[1] = test system: umbilical cord blood-derived CD34+ cells; test: proplatelet formation, umbilical cord blood-derived CD34+ cells; details: 10 μM; DMSO about 44%; FIG. 20D
Description: (§1) iPSC-derived CD34^+ cells (prepared by the method as described in Example 3-2) and umbilical cord blood-derived CD34^+ cells were seeded at 1*10^6 cells per well to 4 ml StemSpan™ SFEM 11+50 ng/ml SCF+50 ng/ml TPO+50 ng/ml IL-6+20 ng/ml IL-3, in a 12-well plate, with 1 ml medium for each well, and 3 wells in total for each cell line, to which 10 μM RO4929097, 10 μM DAPT, and the same volume of DMSO as control, were added, respectively, and the time was recorded as Day 0. The liquid was changed every 3 days, and the culture condition was 37° C., 5% CO2. After iPSC-derived CD34^+ cells were incubated for 6 days, and umbilical cord blood-derived CD34^+ cells were incubated for 9 days, the following experiment was carried out.
(§2) Proplatelet formation of MKs referred to mature megakaryocytes, which extended long and branched filaments and cytoplasmic protrusions.

[2] = test system: iPSCs-derived CD34+ cells; test: polyploid detection, iPSC-derived CD34+ cells; details: 10 μM; Notch inhibitor added since Day 5; DMSO about 18%; FIG. 17
Description: iPSC-derived CD34^+ cells (prepared by the method as described in Example 3-2) and umbilical cord blood-derived CD34^+ cells were seeded at 1*10^6 cells per well to 4 ml StemSpan™ SFEM 11+50 ng/ml SCF+50 ng/ml TPO+50 ng/ml IL-6+20 ng/ml IL-3, in a 12-well plate, with 1 ml medium for each well, and 3 wells in total for each cell line, […] The liquid was changed every 3 days, and the culture condition was 37° C., 5% CO2. After iPSC-derived CD34^+ cells were incubated for 6 days, and umbilical cord blood-derived CD34^+ cells were incubated for 9 days, the following experiment was carried out.
Cells were labeled with CD61-FITC flow cytometric antibody at 4° C. for 30 min. The cells were washed with PBS once, and fixed with 70% ethanol at 4° C. overnight. At the second day, the cells were washed with PBS once. After centriguation, 1 ml PBE (PBS containing 2% serum) +100 μg/ml RNase A +50 μg/ml Propidium Iodide, was added, and incubation was carried out in dark at room temperature for 30 min. The cells were washed with PBS once, and the number of cells (≥8N) in CD61^+ cell population was determined by flow cytometry.

[3] = test system: iPSCs-derived CD34+ cells; test: proplatelet formation, iPSC-derived CD34+ cells; details: 10 μM; DMSO about 47%; FIG. 19D
Description: as §1, §2

[4] = test system: umbilical cord blood-derived CD34+ cells; test: in vitro megakaryocyte lineage differentiation of umbilical cord blood-derived CD34+ cells, flow cytometry; details: 10 μM; for number of mature megakaryocytes (CD41+CD42+) produced, increase vs control group: FIG. 15; for proportion of mature megakaryocyte (CD61+), increase vs control group / proportion of mature megakaryocytes MK (CD41+CD42+) produced, increase vs control group: cells collected at D14, FIG. 14
Description: (1) CD34^+ cells in umbilical cord blood were obtained by Ficoll-Paque PLUS density gradient centrifugation and magnetic bead sorting using CD34 MicroBead Kit. As to the particular steps, please refer to (GE Healthcare Life Sciences, http://www.gelifesciences.com), (Miltenyi Biotec, http://www.miltenyibiotec.com.cn).
(2) Differentiation of umbilical cord blood-derived CD34^+ cells into megakaryocytes: umbilical cord blood-derived CD34^+ cells were counted, and seeded at 1*10^6 cells to 4 ml StemSpan™ SFEM 11+50 ng/ml SCF+50 ng/ml TPO+50 ng/ml IL-6+20 ng/ml IL-3 in a 12-well plate, with 1 ml medium for each well, and four wells in total, to which 10 μM R04929097, 10 μM L-685458, 10 μM DAPT, and the same volume of DMSO as control were added, respectively, and the time was recorded as Day 0. The liquid was changed every 3 days, and the culture condition was 37° C., 5% CO2. After incubation for 6 days, the cell density was high, and the cells in each well were divided into two wells of a 12-well plate, with 2 ml medium for each well. The inhibitors were added at the same concnetrations as described above. The cells were collected at D14, counted, and detected for cell surface markers (CD41, CD42, CD61) by flow cytometer.
As to the collection of umbilical cord blood-derived CD34^+ cells, in vitro megakaryocytic differentiation and detection, please refer to Example 4-1.

Compound | proportion of proplatelet-bearing MKs in 100 differentiated cells [1] | proportion of polyploid megakaryocytes (≥8N) in CD61+ megakaryocytes [2] | proportion of proplatelet-bearing MKs in 100 differentiated cells [3] | number of mature megakaryocytes (CD41+CD42+) produced, increase vs control group [4] | proportion of mature megakaryocyte (CD61+), increase vs control group [4] | proportion of mature megakaryocytes MK (CD41+CD42+) produced, increase vs control group [4]
C[C@H](NC(=O)Cc1cc(F)cc(F)c1)C(=O)N[C@H](C(=O)OC(C)(C)C)c1ccccc1 [DAPT] | ~42% | ~21% | ~50% | 2.9 folds | 2.5 folds | 4.1 folds
CC(C)(C(=O)NCC(F)(F)C(F)(F)F)C(=O)N[C@@H]1C(=O)Nc2ccccc2-c2ccccc21 [RO4929097] | about 40% | about 17% | about 46% | 2.9 folds | 3.1 folds | 4.5 folds
